Assay [1] deals with Leishmania brasiliensis. Also on record: method as in PMID 25144225. To be noted: in vitro; cited from earlier work.
Assay [2] deals with T. cruzi epimastigotes. Also noted: method as in PMID 17673202. To be noted: cited from earlier work.
Assay [3] relates to Trypanosoma brucei. Also noted: method as in PMID 9657042, PMID 9491765. The following applies: Trypanosoma brucei models; cited from earlier work.
Assay [4] relates to Trypanosoma cruzi. Also noted: method as in PMID 2121515. The following applies: blood contaminated with Trypanosoma cruzi; cited from earlier work.
In assay [5] the test system is T. cruzi trypomastigotes (Y strain). Nature of the assay: MTT reduction viability assay on isolated trypomastigotes. The format is cell-based, Trypanosoma cruzi. The following applies: for EC50: Trypanosoma cruzi, Y strain, 24 hours exposure, MTT assay, mean ± SD, read-out: EC50 T. cruzi trypomastigote; for Selectivity index (VERO/T. cruzi): ratio of EC50 VERO cells to EC50 T. cruzi trypomastigote; for potency relative to nifurtimox: trypomastigote viability, comparison of EC50. The protocol: (§1) Trypomastigotes (Y strain, DTU T. cruzi II) were obtained from infected VERO cells (Chlorocebus sabaeus kidney fibroblasts obtained from ATCC, ATCC number: CCL-81). The cells were exposed to trypomastigotes (Y strain) at a 3:1 density (trypomastigote:cell). The trypomastigotes were allowed to infect the cells for 24 h, and the supernatant was then extracted. The trypomastigotes were released from VERO cells at 4 days after infection. The parasites were harvested and collected for viability assays. The effect of the drugs on parasite viability was evaluated using the tetrazolium salt (MTT) reduction assay. […] Alternatively, VERO cells attached to the surface of 96-well plates were washed and incubated with MTT (5 mg/mL). After incubation for 4 h at 37°C, the generated formazan crystals were dissolved with 100 μL of 10% (w/v) sodium dodecyl sulfate (SDS) in 0.01 M HCl. The plates were then incubated overnight at 37°C, and the optical density (OD) was determined using a microplate reader (Labsystems Multiskan MS, Finland) at 570 nm. Under these conditions, the OD is directly proportional to the number of viable cells in each well [33, 34]. All of the experiments were performed at least three times. […] The data from each experiment were plotted using the formazan absorbance versus the log of the concentration, and the plot was fitted to the dose-response (four-parameters) equation using the software Graph Pad Prism V5.0, obtaining the EC50 value per drug and per experiment. The data are expressed as the mean ± DS of the EC50s obtained from each experiment.
In general terms: Tetrazolium assays rely on reduction of a dye to a coloured formazan, in cell work by metabolically active cells.

The subject of assay [6] is VERO cells. In words: MTT reduction viability assay on VERO cells. It is filed as cell-based. The following applies: Chlorocebus sabaeus, 24 hours exposure, mean ± SD. Here is the method:
as §1, with “The” for “Trypomastigotes (Y strain, DTU T. cruzi II) were obtained from infected VERO cells (Chlorocebus sabaeus kidney fibroblasts obtained from ATCC, ATCC number: CCL-81). The cells were exposed to trypomastigotes (Y strain) at a 3:1 density (trypomastigote:cell). The trypomastigotes were allowed to infect the cells for 24 h, and the supernatant was then extracted. The trypomastigotes were released from VERO cells at 4 days after infection. The parasites were harvested and collected for viability assays. The”

Assay [7] relates to T. cruzi in infected RAW 264.7 cells. Nature of the assay: Parasite DNA load by real-time PCR in infected RAW cells. The format is cell-based, Trypanosoma cruzi. To be noted: infected RAW cells, 48 hours after treatment, Fig 4. An excerpt: DNA from infected RAW cells (murine macrophages, ATCC number: TIB-71) was isolated using Wizard Genomic DNA Purification Kit (Promega, USA) following the manufacturer’s instructions. DNA was quantified through […] absorbance measurements using a Varioskan spectrophotometer (Thermo Scientific, USA). To evaluate the parasite DNA load, we used a TaqMan-Duplex system, as described previously. To amplify an 84-bp T. cruzi satellite DNA sequence, we used the following primers: TcSt 4-Fw (5’-[…]-3’) and TcSt 1-Rev (5’-[…]-3’) and the TcSt-1 probe (5’-FAM-[…]-BHQ-1-3’). As an endogenous control, we used the Mus-F (5’-[…]-3’) and Mus-R (5’-[…]-3’) primers coupled with the MM-1 probe (5’-HEX-AAAGCATCTGCCTCCG-BHQ-1-3’) to amplify a 67-bp Mus musculus GAPDH sequence. The primers and probes were designed using Primer Express 3.0 Software (Applied Biosystems, USA) and manufactured by Integrated DNA Technologies (Coralville, IA, USA). The PCR reactions were performed using an ABI7300 real-time thermocycler (Applied Biosystems, USA). […] ROX was used as a reference dye. For both TaqMan assays, the thermal cycle consisted of a polymerase activation step carried out at 95°C for 10 min (one cycle) and a two-step amplification phase: 95°C for 15 s and 55°C for 45 s (40 cycles). Fluorescence was measured at the end of each amplification cycle. The data were analyzed using 7300 System SDS software with the SDS relative quantitation plug-in (Applied Biosystems, USA). All of the data were analyzed by the 2^-∆∆CT method, comparing the CTs of the T. cruzi gene versus that of GAPDH as well as comparing all of the samples with the controls. The parasite load is expressed as the relative DNA load compared with the controls.
(In general: In qPCR the cycle at which signal appears reflects the starting amount.)

Assay [8] has as its system T. cruzi trypomastigotes (Y strain) mitochondrial permeability transition pore. Nature of the assay: Mitochondrial permeability transition pore opening (calcein AM / CoCl2). The format is cell-based, Trypanosoma cruzi. The following applies: 5 μM, 1 hour, Fig 6B. The protocol: The opening of mitochondrial permeability transition pores was assessed using the calcein AM probe, adapting the method described by Huang et al (2014). Calcein-AM is a lipophilic probe that can enter the cell, including the mitochondria, and is then cleaved by cellular esterases, releasing the fluorescent probe calcein. T. cruzi trypomastigotes (Y strain, 5 x 10^6 parasites/mL) were stained with 100 nM calcein AM (Molecular Probes, Applied Biosytems, USA) and incubated at 37°C for 15 min in the presence of […] of CoCl2 to quench the cytosolic fluorescence of calcein. Then, the parasites were washed with PBS and resuspended in RPMI medium, without phenol red, supplemented with 0.3 mM of Ca^+2. The parasites were then seeded in 24-well plates and exposed to the different compounds (TPP^+-C8, TPP^+-C10, TPP^+-C11, and TPP^+-C12) at 1 or 5 μM for 1 hour. As a positive control, one group was exposed to ionomycin (0.5 μM). The samples were measured using a FACS Aria III flow cytometer (BD Biosciences, USA) with the 494/517 filter to detect calcein fluorescence. For every measurement, 5,000 events were recorded. The raw flow cytometry data were analyzed using FACSDiva 6.1 software (BD Biosciences). The results were analyzed using the median fluorescence intensity (MFI) from the frequency histograms. Thus, we used the median intensity of the control group (parasites incubated with calcein AM and CoCl2) to establish 100% of mitochondrial fluorescence, thereby establishing percent ratios between the treatment groups and the control.

We go through five compounds from paper PMC4552745, “Novel Gallate Triphenylphosphonium Derivatives with Potent Antichagasic Activity” (PLoS ONE, 2015).

SMILES strings stand for the structures.

For the compound `O=C(O[C@@H]1Cc2c(O)cc(O)cc2O[C@@H]1c1cc(O)c(O)c(O)c1)c1cc(O)c(O)c(O)c1` [EGCg, (-)-epigallocatechin 3-O-gallate], the “concentration at which the effect on viability is reached” value in assay [1] is on record as “over 60 μM”. The “concentration at which the antiproliferative effect is observed” value in assay [2] is “over 500 μM”.

As a reminder, the EC50 is the concentration needed to bring the measured effect to its halfway point. Take `O=C(O)c1cc(O)c(O)c(O)c1` [GA, Gallic acid]: in assay [3], the EC50 was > 30 µM. In addition, the “concentration range at which effects are exerted” value in assay [4] was “millimolar range”.

For `CC1CS(=O)(=O)CCN1/N=C/c1ccc([N+](=O)[O-])o1` (stereo not drawn) [Nifurtimox, reference compound], in assay [5], the EC50 amounted to 4.1 ± 0.9 µM and the “Selectivity index (VERO/T. cruzi)” value is > 24. Further, the half-maximal effective concentration (EC50) in assay [6] was > 100 µM.

With `O=C(OCCCCCCCC[P+](c1ccccc1)(c1ccccc1)c1ccccc1)c1cc(O)c(O)c(O)c1.[Br-]` [TPP^+-C8, triphenyl(8-((3,4,5-trihydroxybenzoyl)oxy)-octyl) phosphonium bromide], in assay [5], the EC50 was 4.8 ± 0.9 µM, the “Selectivity index (VERO/T. cruzi)” value is reported as > 21 and the “potency relative to nifurtimox” value was “almost equal in potency to nifurtimox”. Moreover, in assay [6], the EC50 is > 100 µM. For the same compound, the “parasite load (qPCR)” value in assay [7] is given as “the lowest concentrations of TPP^+-C8 increased the parasite load”.

For the compound `O=C(OCCCCCCCCCCC[P+](c1ccccc1)(c1ccccc1)c1ccccc1)c1cc(O)c(O)c(O)c1.[Br-]` [TPP^+-C11, triphenyl(11-((3,4,5-trihydroxybenzoyl)oxy)-undecyl) phosphonium bromide], in assay [5], the EC50 was determined as 9.2 ± 0.1 µM, the “Selectivity index (VERO/T. cruzi)” value was > 11 and the “potency relative to nifurtimox” value was “almost equal in potency to nifurtimox”. The “mitochondrial calcein fluorescence (median fluorescence intensity)” value in assay [8] is listed as 41 % of the control. Further, in assay [6], the EC50 is > 100 µM. The “parasite load (qPCR)” value in assay [7] is on record as “reduced the parasite load in a concentration-dependent manner”.
